{"source": "patent US20110251158A1", "about": "“FULLERENE THERAPIES FOR INFLAMMATION AND INHIBITION OF BUILD-UP OF ARTERIAL PLAQUE” (Luna Innovations Incorporated, priority 2008, published 2011)", "tested_on": "ROS", "test": "FcεRI-induced ROS (DCF) in MC", "assay_type": "cell-based, human", "details": "10 μg/mL overnight; anti-FcεRI 1 μg/mL", "description": "MC were pre-treated with or without fullerene derivatives as above, washed with Tyrodes buffer supplemented with BSA, and incubated with Fura-2 AM (2 μM) for 30 minutes at 37° C. Cells were washed, stimulated with anti-FcεRI, and calcium flux measured in real time on a Perkin Elmer LS55 Spectrofluorometer. For ROS production, cells were exposed to fullerene derivatives as above. After washing, cells were re-suspended in X-Vivo medium containing 5 μM dichlorodihydrofluorescein (DCF) at 37° C. for 30 minutes, washed, and activation-induced changes in mean fluorescence was measured with excitation at 502 nm and emission at 523 nm for 15 minutes (19). The data is presented as fluorescence intensity of the 523 nm emission over time. All experiments were performed in triplicate and degranulation was measured in parallel.\nCells were incubated with or without fullerene derivative (10 μg/mL) overnight. The next day cells were challenged with anti-FcεRI (3B4; 1 μg/mL) and calcium stores release was determined by the 340/380 nm ratio (FIGS. 11A and 11B) and ROS measured by DCF detection at 523 nm (FIGS. 11C and 11D). FIGS. 11A and 11C contain cells incubated with the TGA fullerene derivative, and FIGS. 11B and 11D contain cells incubated with the Inos fullerene derivative (10 μg/mL). […]"}
{"substance": "C70-tetraglycolic acid [TGA]", "values": [{"measurement": "FcεRI-induced ROS", "value": "inhibited"}]}
